This note sets out measurements from the OligoGym collection.

Bases are written 5' to 3'; sugars and linkages follow in the same order, as letters with counts (s phosphorothioate, o phosphodiester; PS: all linkages phosphorothioate). The collection does not say whether C is 5-methylated. l = locked nucleic acid (LNA); d = 2'-deoxy (DNA)

This data set addresses Tau. Put plainly: rat primary cortical neurons, FLIPR, 25 uM ASO.
On to “CCACATTTGTCTTTAAC (sugars l3 d10 l4, PS)”, for which the calcium oscillation score is 42.9 % of control.
Turning to “CCACCATACTTGACTTC (sugars l3 d12 l2, PS)”, the calcium oscillation score was 91.6 % of control.
Regarding “CCACCATACTTGACTTCT (sugars l2 d14 l2, PS)”, the calcium oscillation score was 76.8 % of control.
For “CCACCCAAACTCCAAGTT (sugars l2 d14 l2, PS)” the value was 52 % of control; for “CCACCCATCAATTTGGAAAG (sugars l3 d14 l3, PS)”, 58.1 % of control.
On to “CCACCCTAACACAATCA (sugars l2 d12 l3, PS)”, for which the calcium oscillation score was 94 % of control.
Regarding “CCACCTCATTAAGATCA (sugars l3 d12 l2, PS)”, the calcium oscillation score is 56 % of control.
Then “CCACCTCCTAGAACACA (sugars l2 d13 l2, PS)”, with 50.9 % of control; and CCACCTCCTGGTTTAT (sugars l3 d10 l3, PS), with 104 % of control.
For “CCACCTCCTGGTTTATGATG (sugars l3 d14 l3, PS)” the value was 19.4 % of control; for “CCACTACAAGCTCCACAT (sugars l2 d14 l2, PS)”, 50 % of control; for CCACTCCATGTCAATC (sugars l4 d10 l2, PS), 69.3 % of control.
With “CCACTCCATGTCAATCA (sugars l4 d11 l2, PS)”, the calcium oscillation score was 63.5 % of control.
Then “CCACTGGCGACTTGTACACG (sugars l3 d14 l3, PS)”, with 16.8 % of control.
Then “CCACTTTACTTTGCAAC (sugars l4 d11 l2, PS)”, with 55.8 % of control.
Then “CCAGACACCACTGGCGACTT (sugars l3 d14 l3, PS)”, with 128 % of control; and “CCAGACCATCAATTTCC (sugars l2 d13 l2, PS)”, with 83.3 % of control.
For CCAGATTCCCCAACTC (sugars l2 d12 l2, PS), the calcium oscillation score was 73.3 % of control.
Then “CCAGATTCCCCAACTCA (sugars l2 d12 l3, PS)”, with 76.7 % of control; and “CCAGATTCCCCAACTCAC (sugars l3 d13 l2, PS)”, with 89 % of control; and “CCAGCAGCTTCGTCTTCCAG (sugars l3 d14 l3, PS)”, with 36.1 % of control.
For CCAGCGTGATCTTC (sugars l3 d8 l3, PS) the value was 120 % of control; for CCAGCGTGATCTTCCA (sugars l3 d10 l3, PS), 98 % of control; for “CCAGCGTGATCTTCCATCAC (sugars l3 d14 l3, PS)”, 112 % of control.
As to “CCAGCGTGATCTTCCATCAC (sugars l4 d11 l5, PS)”, the calcium oscillation score is 124 % of control.
For “CCAGCGTGATCTTCCATCAC (sugars l5 d11 l4, PS)” the value was 91.6 % of control; for “CCAGCGTGATCTTCCATCAC (sugars ldlllddddddddddlldll, PS)”, 124 % of control.
Then “CCAGCGTGATCTTCCATCAC (sugars lldllddddddddddlldll, PS)”, with 121 % of control.
Take “CCAGCTAGTGGTGCCACCTG (sugars l3 d14 l3, PS)”: the calcium oscillation score was 1.84 % of control.
Then CCAGGGACCCAATCTT (sugars l3 d10 l3, PS), with 76 % of control.
For “CCAGGGACCCAATCTTCGAC (sugars l3 d14 l3, PS)”, the calcium oscillation score is 9.04 % of control.
Consider “CCAGGGACGTGGGTGATATT (sugars l3 d14 l3, PS)”, for which the calcium oscillation score was 0 % of control.
Then “CCAGGGAGGCAGACACCTCG (sugars l3 d14 l3, PS)”, with 10.2 % of control; and “CCAGTGCCTGGCACAACAGG (sugars l3 d14 l3, PS)”, with 4.03 % of control.
Then “CCAGTTACCATCATACA (sugars l2 d12 l3, PS)”, with 91.8 % of control; and CCATCAATTTCCCTGT (sugars l2 d10 l4, PS), with 56.3 % of control.
Then “CCATCAATTTGGAAAGATGA (sugars l3 d14 l3, PS)”, with 52.3 % of control.
